Test results from ChEMBL document CHEMBL1131581, “4H-1,2,4-Pyridothiadiazine 1,1-dioxides and 2,3-dihydro-4H-1,2, 4-pyridothiadiazine 1,1-dioxides chemically related to diazoxide and cyclothiazide as powerful positive allosteric modulators of (R/S)-2-amino-3-(3-hydroxy-5-methylisoxazol-4-yl)propionic acid receptors: design, synthesis, …” (J Med Chem, 1998).

Experiments:
[1] = target: T1, Glutamate receptor ionotropic, AMPA (Rattus norvegicus) (UniProt P19491+P19492+P19493+P19490); experiment: concentration of drug giving a 5-fold increase of the magnitude of the current induced by Ionotropic glutamate receptor AMPA (30 uM) and measured in Xenopus Oocytes expressing Rat Cortex AMPA Receptors; format: functional, cell-based
[2] = target: T1, Glutamate receptor ionotropic, AMPA (Rattus norvegicus); experiment: Concentration of drug giving a 2-fold increase of the magnitude of the current induced by Ionotropic glutamate receptor AMPA (30 uM) and measured in Xenopus Oocytes expressing Rat Cortex AMPA Receptors; format: functional, cell-based
Rattus norvegicus [3] = organism: Rattus norvegicus; experiment: Residual insulin release from rat pancreatic islets incubated in the presence of an insulinotropic […] glucose concentration and at a 50 uM concentration of drug; format: functional
Rattus norvegicus [4] = organism: Rattus norvegicus; experiment: Effect on amplitude of the postsynaptic excitatory potentials induced by electric stimulation in rat hippocampal slices; format: functional, Hippocampus
Rattus norvegicus [5] = organism: Rattus norvegicus; experiment: Effect on duration of the postsynaptic excitatory potentials induced by electric stimulation in rat hippocampal slices; format: functional, Hippocampus
[6] = Ratio between the D50 value and the A50 value; format: functional
[7] = Partition coefficient was measured in between 1-octanol and aqueous buffer solution of pH 7.4; format: physicochemical; conditions: 1-octanol/aqueous buffer
Rattus norvegicus [8] = organism: Rattus norvegicus; experiment: Concentration for 50 percent increase of the amplitude (A50) of the postsynaptic excitatory potentials induced by electric stimulation in rat hippocampal slices; format: functional, Hippocampus
Rattus norvegicus [9] = organism: Rattus norvegicus; experiment: Concentration for 50 percent increase of the duration (D50) of the postsynaptic excitatory potentials induced by electric stimulation in rat hippocampal slices; format: functional, Hippocampus

| Structure (SMILES) | EC5X [1] [µM] | EC2x [2] [µM] | other results |
| --- | --- | --- | --- |
| O=S1(=O)c2cnccc2NCN1c1ccccc1 | > 100 | > 100 | – |
| CC(C)N1CNS(=O)(=O)c2cnccc21 | 237 | 94 | RIS (Rattus norvegicus [3]): 101% |
| CCC(CC)C1Nc2ccncc2S(=O)(=O)N1 (stereo not given) | > 1000 | > 1000 | – |
| CN1CNS(=O)(=O)c2ncccc21 | 51 | 21 | A50 (Rattus norvegicus [4]): 79 µM; D50 (Rattus norvegicus [5]): 48 µM; Ratio [6]: 0.6 |
| CN1CNS(=O)(=O)c2cnccc21 | 283 | 63 | A50 (Rattus norvegicus [4]): 216 µM; RIS (Rattus norvegicus [3]): 95.8%; D50 (Rattus norvegicus [5]): 130 µM; Ratio [6]: 0.6 |
| O=S1(=O)N=CNc2ccncc21 | > 1000 | > 1000 | – |
| CC1=NS(=O)(=O)c2cccnc2N1C | > 1000 | 800 | – |
| CC(C)C1Nc2ccncc2S(=O)(=O)N1 (stereo not given) | > 1000 | > 1000 | – |
| CN1CN(C)S(=O)(=O)c2cnccc21 | > 1000 | 300 | – |
| CC1=NS(=O)(=O)c2cccnc2N1 | > 1000 | > 1000 | logD [7]: -0.25; RIS (Rattus norvegicus [3]): 92.8% |
| O=S1(=O)c2cnccc2NCN1C1CCCCC1 | > 100 | > 100 | – |
| O=S1(=O)N=CNc2ncccc21 | > 1000 | > 1000 | – |
| O=S1(=O)N=CNc2cccnc21 | > 1000 | > 1000 | – |
| NC1=NS(=O)(=O)c2cnccc2N1 | > 1000 | > 1000 | RIS (Rattus norvegicus [3]): 104% |
| CCN1CN(C)S(=O)(=O)c2ncccc21 | 96 | 38 | – |
| CCCC1Nc2ccncc2S(=O)(=O)N1 (stereo not given) | > 1000 | > 1000 | – |
| CCN1C=NS(=O)(=O)c2ncccc21 | 186 | 96 | – |
| CC(C)N1CNc2ccncc2S1(=O)=O | > 300 | > 300 | – |
| CCC1Nc2ccncc2S(=O)(=O)N1 (stereo not given) | > 1000 | > 1000 | – |

| Structure (SMILES) | EC5X [1] [µM] | EC2x [2] [µM] | other results |
| --- | --- | --- | --- |
| CCC1NS(=O)(=O)c2cnccc2N1C (stereo not given) | > 1000 | 800 | – |
| CC1=NS(=O)(=O)c2cnccc2N1C(C)C | 1200 | 500 | – |
| COc1ccc(C(=O)N2CCCC2=O)cc1 | > 3000 | 1440 | D50 (Rattus norvegicus [5]): >2000 µM |
| O=S1(=O)NCNc2ccncc21 | > 1000 | > 1000 | – |
| CC1=NS(=O)(=O)c2ncccc2N1 | 900 | 400 | logD [7]: -0.91; RIS (Rattus norvegicus [3]): 98.7% |
| CN1CNS(=O)(=O)c2cccnc21 | 500 | 200 | – |
| CCN1CN(CC)S(=O)(=O)c2ncccc21 | 220 | 87 | – |
| CC(C)N1CN(C)S(=O)(=O)c2cnccc21 | > 1000 | > 1000 | – |
| CCC1=NS(=O)(=O)c2cnccc2N1 | > 1000 | > 1000 | – |
| O=S1(=O)NCN(CC(F)(F)F)c2ccncc21 | 215 | 110 | – |
| CC1=Nc2ccc(Cl)cc2S(=O)(=O)N1 [DIAZOXIDE] | > 1000 | 448 | A50 (Rattus norvegicus [8]): >500 µM; RIS (Rattus norvegicus [3]): 28.8%; D50 (Rattus norvegicus [9]): >500 µM |
| CCC(C)NC1=NS(=O)(=O)c2cnccc2N1 (stereo not given) | > 1000 | > 1000 | RIS (Rattus norvegicus [3]): 9.4% |
| CN1C=NS(=O)(=O)c2ncccc21 | 645 | 265 | – |
| O=S1(=O)N=C(C(F)(F)F)Nc2ccncc21 | > 1000 | > 1000 | – |
| O=S1(=O)NCN(C2CCCCC2)c2ccncc21 | > 1000 | > 1000 | – |
| CC1NS(=O)(=O)c2cnccc2N1C (stereo not given) | 450 | 150 | – |
| O=S1(=O)NCNc2ncccc21 | > 1000 | > 1000 | – |
| CC1Nc2cccnc2S(=O)(=O)N1 (stereo not given) | 270 | 114 | A50 (Rattus norvegicus [4]): 154 µM; logD [7]: -0.2; RIS (Rattus norvegicus [3]): 81%; D50 (Rattus norvegicus [5]): 100 µM; Ratio [6]: 0.65 |
| O=S1(=O)NCNc2cccnc21 | 1100 | 300 | – |

| Structure (SMILES) | EC5X [1] [µM] | EC2x [2] [µM] | other results |
| --- | --- | --- | --- |
| CC1Nc2ccncc2S(=O)(=O)N1C (stereo not given) | 381 | 214 | – |
| CCN1CNS(=O)(=O)c2cnccc21 | 195 | 55 | A50 (Rattus norvegicus [4]): 222 µM; D50 (Rattus norvegicus [5]): 137 µM; Ratio [6]: 0.6 |
| CCCNC1=NS(=O)(=O)c2cnccc2N1 | > 1000 | > 1000 | RIS (Rattus norvegicus [3]): 57.7% |
| CN1CNc2cccnc2S1(=O)=O | 766 | 341 | – |
| NS(=O)(=O)c1cc2c(cc1Cl)NC(C1CC3C=CC1C3)NS2(=O)=O (stereo not given) [CYCLOTHIAZIDE] | 9.8 | 1.6 | A50 (Rattus norvegicus [4]): >300 µM; D50 (Rattus norvegicus [5]): >300 µM |
| O=S1(=O)NC(C2CCCCC2)Nc2ccncc21 (stereo not given) | > 1000 | > 1000 | – |
| CCCCN1CNS(=O)(=O)c2cnccc21 | > 1000 | 800 | – |
| CC1=NS(=O)(=O)c2cnccc2N1 | > 1000 | > 1000 | logD [7]: -0.41; RIS (Rattus norvegicus [3]): 100% |
| CCCN1CN(C)c2ccncc2S1(=O)=O | > 1000 | > 1000 | – |
| CC(C)N1CNS(=O)(=O)c2ncccc21 | 41 | 27 | – |
| CC1Nc2ccncc2S(=O)(=O)N1 (stereo not given) | > 1000 | 500 | logD [7]: 0.13; RIS (Rattus norvegicus [3]): 93.6% |
| O=S1(=O)NC(c2ccccc2)Nc2ccncc21 (stereo not given) | > 1000 | > 1000 | – |
| CC1Nc2ncccc2S(=O)(=O)N1 (stereo not given) | > 1000 | > 1000 | logD [7]: 0.35; RIS (Rattus norvegicus [3]): 94.8% |
| CCCCCN1CNc2ccncc2S1(=O)=O | > 100 | > 100 | – |
| CN1CNc2ccncc2S1(=O)=O | > 1000 | > 1000 | – |
| CC1=NS(=O)(=O)c2cnccc2N1C | 800 | 250 | – |
| CCCN1CNS(=O)(=O)c2cnccc21 | 805 | 300 | – |
| CN1CN(C)S(=O)(=O)c2ncccc21 | 133 | 39 | – |
| CC(C)C(C)NC1=NS(=O)(=O)c2cnccc2N1 (stereo not given) | > 1000 | > 1000 | RIS (Rattus norvegicus [3]): 8.6% |
